Experimental data from paper PMC4296562 (Analytical biochemistry, 2014).

Experiments:
MurX [1] = molecular target: T1, MurX (Mycobacterium tuberculosis, UniProt P9WMW7); format: biochemical; conditions: for MurX inhibition (%) 0.1 μM: inhibitor 0.1 μM; for MurX inhibition (%) 0.1 μM / MurX inhibition (%) 1 μM / MurX inhibition (%) 10 μM / MurX inhibition (%) 100 μM: 2 75 μM, neryl phosphate 6, P-60, 26 °C, 3h; for MurX inhibition (%) 1 μM: inhibitor 1 μM; for MurX inhibition (%) 10 μM: inhibitor 10 μM; for MurX inhibition (%) 100 μM: inhibitor 100 μM; for IC50: neryl phosphate assay, obtained three times, ± standard error of the mean
T1 sequence (P9WMW7 whole entry): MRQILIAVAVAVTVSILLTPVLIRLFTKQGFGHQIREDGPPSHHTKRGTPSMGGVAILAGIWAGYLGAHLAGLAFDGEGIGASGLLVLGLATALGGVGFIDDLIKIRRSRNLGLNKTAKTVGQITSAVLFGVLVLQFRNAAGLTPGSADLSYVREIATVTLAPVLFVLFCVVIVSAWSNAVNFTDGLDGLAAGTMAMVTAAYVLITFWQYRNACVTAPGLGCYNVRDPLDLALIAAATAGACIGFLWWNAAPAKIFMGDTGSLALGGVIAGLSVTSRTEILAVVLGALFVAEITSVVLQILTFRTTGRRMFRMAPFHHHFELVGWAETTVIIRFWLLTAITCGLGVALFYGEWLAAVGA

MraY-MurG = conditions: no reference given; cited from earlier work
MurX [2] = molecular target: T1, MurX
Water-solubility = format: physicochemical

Row | Compound | MurX inhibition (%) 0.1 μM (MurX [1]) | MurX inhibition (%) 1 μM (MurX [1]) | MurX inhibition (%) 10 μM (MurX [1]) | MurX inhibition (%) 100 μM (MurX [1]) | other results
1 | CN[C@H](CC(C)C)C(=O)N[C@H]1C(=O)N[C@@H](CC(N)=O)C(=O)N[C@H]2C(=O)N[C@H]3C(=O)N[C@H](C(=O)N[C@H](C(=O)O)c4cc(O)cc(O)c4-c4cc3ccc4O)[C@H](O)c3ccc(c(Cl)c3)Oc3cc2cc(c3O[C@@H]2O[C@H](CO)[C@@H](O)[C@H](O)[C@H]2O[C@H]2C[C@](C)(N)[C@H](O)[C@H](C)O2)Oc2ccc(cc2Cl)[C@H]1O [Vancomycin] | 0% | 0% | 0% | 0% | MurX inhibitory activity (MurX [1]; even at 100 μM concentrations): did not inhibit MurX; activity in MraY-MurG coupled assays (MraY-MurG): good activity
2 | CC(C)=CCC/C(C)=C\COP(=O)(O)O [compound 6, neryl phosphate] |  |  |  |  | IC50 (MurX [1]): 152 nM
3 | Park’s nucleotide-N^ε-dansylthiourea [compound 2] |  |  |  |  | Km (MurX [2]): 17.9 µM; Vmax for neryl-lipid I synthesis by MurX (MurX [2]): 0.00269 µM/s
4 | neryl-lipid I-N^ε-dansylthiourea [compound 5] |  |  |  |  | water-solubility (Water-solubility): > 50 µg/mL
5 | Tunicamycin [Tunicamycin (9)] | 9% | 42% | 72% | 72% | IC50 (MurX [1]): 2730 ± 138 nM
6 | N-glycolyl Park’s nucleotide-N^ε-dansylthiourea [compound 1] |  |  |  |  | Km (MurX [2]): 18.1 µM
7 | CO[C@H]1[C@@H](O)[C@H](n2ccc(=O)[nH]c2=O)O[C@@H]1[C@@H](O[C@H]1OC(C(=O)N[C@H]2CCCCNC2=O)=C[C@H](O)[C@@H]1O)C(N)=O [Capuramycin (7), Capuramycin] | 36.6% | 88.4% | 100% | 100% | 
